Reference: ChEMBL document CHEMBL5042506, “Discovery of Orally Available Retinoic Acid Receptor-Related Orphan Receptor γ-t/Dihydroorotate Dehydrogenase Dual Inhibitors for the Treatment of Refractory Inflammatory Bowel Disease” (J Med Chem, 2022)

Assays:
Assay type in all cases: ADME, organism-based
[1] = Cmax in ICR mouse at 5 mg/kg, po measured over 24 hrs by LC-MS/MS analysis; design: route oral, dose 5 mg/kg, time >24; conditions: in vivo
[2] = AUC (0 to last) in ICR mouse at 1 mg/kg, iv measured over 24 hrs by LC-MS/MS analysis; design: route intravenous, dose 1 mg/kg, time >24; conditions: in vivo
[3] = Clearance in ICR mouse at 1 mg/kg, iv measured over 24 hrs by LC-MS/MS analysis; conditions: in vivo
[4] = Cmax in ICR mouse at 1 mg/kg, iv measured over 24 hrs by LC-MS/MS analysis; design: route intravenous, dose 1 mg/kg, time >24; conditions: in vivo
[5] = Oral bioavailability in ICR mouse at 5 mg/kg measured over 24 hrs by LC-MS/MS analysis; conditions: in vivo
[6] = Volume of distribution at steady state in ICR mouse at 1 mg/kg, iv measured over 24 hrs by LC-MS/MS analysis; conditions: in vivo, read-out: Vdss
[7] = AUC (0 to last) in ICR mouse at 5 mg/kg, po measured over 24 hrs by LC-MS/MS analysis; design: route oral, dose 5 mg/kg, time >24; conditions: in vivo

- Cmax [1]: 213 ng/mL
- AUC(0-t) at 24 h [2]: 634 ng·h/mL
- clearance [3]: 26.6 mL/min/kg
- Cmax [4]: 590 ng/mL
- bioavailability [5]: 18.9%
- Vd [6]: 2.95 L/kg
- AUC(0-t) at 24 h [7]: 599 ng·h/mL
SMILES: Cc1c(Nc2nc3c(s2)CCCC3O)cc(Cl)cc1OC1CCN(C(=O)CC(C(F)(F)F)C(F)(F)F)CC1 (racemic)
